In PMC8533211, “Computationally Assisted Lead Optimization of Novel Potent and Selective MAO-B Inhibitors” (Biomedicines, 2021):
Entries after “also recorded” stand apart in the source; their conditions may differ. Like-named read-outs stand apart in the source and are kept apart here.

Assays:
[1] = test system: MAO-A (rat liver mitochondrial fraction); parameters: method as in PMID 18372132; conditions: chromogenic solution; cited from earlier work
[2] = test system: MAO-B (rat liver mitochondrial fraction); parameters: method as in PMID 18372132; conditions: cited from earlier work
[3] = target: T1, human recombinant MAO-A (Homo sapiens, UniProt P21397); experiment: kynuramine oxidation deamination assay, MAO-A inhibition (IC50); assay type: biochemical; conditions: kynuramine 80 μM, mean ± S.D. of triplicate
T1 construct: purchased BD Biosciences (Bedford, MA, USA)
T1 sequence (P21397 1-527): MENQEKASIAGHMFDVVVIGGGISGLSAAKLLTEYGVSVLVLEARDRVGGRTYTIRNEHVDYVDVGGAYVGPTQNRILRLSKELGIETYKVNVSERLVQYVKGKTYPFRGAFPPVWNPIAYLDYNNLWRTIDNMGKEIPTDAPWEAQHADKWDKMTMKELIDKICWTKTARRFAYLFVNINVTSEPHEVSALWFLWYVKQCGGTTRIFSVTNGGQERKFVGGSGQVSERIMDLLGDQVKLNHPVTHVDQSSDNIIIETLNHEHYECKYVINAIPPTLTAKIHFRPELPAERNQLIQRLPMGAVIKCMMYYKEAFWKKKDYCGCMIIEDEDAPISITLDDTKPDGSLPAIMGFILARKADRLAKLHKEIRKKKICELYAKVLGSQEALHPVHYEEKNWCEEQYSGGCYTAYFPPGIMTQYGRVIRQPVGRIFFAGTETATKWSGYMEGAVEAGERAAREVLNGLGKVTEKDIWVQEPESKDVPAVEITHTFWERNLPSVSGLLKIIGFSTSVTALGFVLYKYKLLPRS
Description: (§1) A fixed single concentration of kynuramine substrate and varying concentrations of the test inhibitor were used to determine the IC50 values. The kynuramine concentrations for MAO-A and -B were 80 μM and 50 μM, respectively. These concentrations of kynuramine were twice the apparent KM value for substrate binding. […] Enzymatic reactions were performed in 50 μL of the assay mixture containing 0.1 M potassium phosphate buffer, pH 7.4. […] Reactions were initiated by the addition of 12.50 μL of MAO-A (to 5 μg/mL) or -B (to 10 μg/mL). The plate was incubated for 20 min at 37 °C, and the enzymatic reaction was terminated by the addition of 18.8 μL of 2N NaOH. Formation of the enzyme product, 4-hydroxyquinoline, was measured fluorometrically using a SpectraMax M5 fluorescence plate reader (Molecular Devices, Sunnyvale, CA, USA) with excitation (320 nm) and emission (380 nm) wavelengths and the Soft Max Pro program. The inhibition effects of enzyme activity were calculated as percent of product formation compared to the corresponding control (enzyme–substrate reaction) without inhibitors. Controls included the assays where the enzyme or the substrate was added after terminating the reaction to determine the interference with the fluorescence measurements. The IC50 values for MAO-A and -B inhibition were calculated from the concentration-dependent inhibition curves using XLFit® software.

[4] = target: T2, human recombinant MAO-B (Homo sapiens, UniProt P27338); experiment: time-dependent inhibition of MAO-B; conditions: read-out: MAO-B enzyme inhibition in time-dependent assay
T2 sequence (P27338 1-520): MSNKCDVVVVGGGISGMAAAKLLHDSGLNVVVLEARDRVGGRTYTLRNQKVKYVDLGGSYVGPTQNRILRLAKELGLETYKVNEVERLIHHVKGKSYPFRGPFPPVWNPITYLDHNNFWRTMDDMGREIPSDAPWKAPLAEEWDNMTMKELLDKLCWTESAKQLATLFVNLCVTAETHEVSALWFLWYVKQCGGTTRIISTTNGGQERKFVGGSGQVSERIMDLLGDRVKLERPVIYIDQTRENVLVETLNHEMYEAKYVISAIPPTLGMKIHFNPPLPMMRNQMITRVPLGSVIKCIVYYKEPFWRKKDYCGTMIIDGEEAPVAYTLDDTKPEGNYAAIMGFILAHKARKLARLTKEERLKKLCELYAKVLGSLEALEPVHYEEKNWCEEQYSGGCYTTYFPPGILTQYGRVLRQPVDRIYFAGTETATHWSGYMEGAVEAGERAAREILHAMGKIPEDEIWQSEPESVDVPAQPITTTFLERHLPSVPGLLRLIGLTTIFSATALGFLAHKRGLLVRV
Description: The controls, without inhibitors, were also run simultaneously. Activities of the enzyme were determined as described above, and the percentage of the remaining enzyme activity was plotted against the pre-incubation time to determine time-dependent inhibition.
The control enzyme without inhibitor was also run concurrently. For validation, the MAO- B standards were run simultaneously for the time-dependent assay.

[5] = target: T2, human recombinant MAO-B; experiment: kynuramine oxidation deamination assay, MAO-B inhibition (IC50); assay type: biochemical; parameters: purchased BD Biosciences (Bedford, MA, USA); conditions: for Selectivity Index MAO-A/B: ratio of IC50 MAO-A / MAO-B; for IC50: recombinant human MAO-B, kynuramine 50 μM, mean ± S.D. of triplicate
Description: as §1, with “The kynuramine concentrations for MAO-A and -B were 80 μM and 50 μM, respectively.” left out

[6] = target: T2, human recombinant MAO-B; experiment: MAO-B inhibition kinetics, Lineweaver–Burk (Ki, type of inhibition); assay type: biochemical; parameters: purchased BD Biosciences (Bedford, MA, USA); conditions: for Ki: kynuramine 1.90–500 μM, mean ± S.D. of triplicate experiments, read-out: Monoamine Oxidase B Ki
Description: (§2) The controls without inhibitor were also run simultaneously. Three sets of assays were performed at varying concentrations of the substrate for each experiment: one control without inhibitor and the others at two fixed concentrations of the inhibitor. The data were analyzed by double reciprocal Lineweaver–Burk plots to determine Ki (i.e., inhibition/binding affinity) values and the kinetic data, namely Km, Vmax, and Ki values, were computed by SigmaPlot 12 [9].
Modified flavonoids (1–4) c were evaluated against MAO-B at varying concentrations of kynuramine, a nonselective substrate, to investigate the nature of inhibition of the enzymes. Based on dose–concentration inhibition, three to five concentrations (below and above the concentration of IC50 values) were selected for the inhibition kinetics experiment.

[7] = target: T2, human recombinant MAO-B; experiment: reversibility of binding by equilibrium dialysis of the enzyme–inhibitor complex; conditions: for MAO-B enzyme activity recovered after dialysis: 1.5 µM inhibitor, dialyzed overnight at 4 °C, 25 mM buffer pH 7.4; for reversibility of binding/inhibition of MAO-B: equilibrium dialysis
Description: Recovery of the catalytic activity of the enzyme was determined by assay of the enzyme activity before and after equilibrium-dialysis. […] After 20 min of incubation at 37 °C, the reaction was stopped by chilling the tubes in the ice bath. All the samples were dialyzed against potassium phosphate buffer (25 mM; pH 7.4) at 4 °C for 14–18 h (with three buffer changes). The control enzyme (without inhibitor) was also run simultaneously using the same procedure and the activity of the enzyme was determined before and after the dialysis.
MAO-B enzyme was incubated with the highest concentration of the analogs for 20 min at 37 °C to allow for binding of the inhibitor with the enzyme and formation of the enzyme–inhibitor complex. Then, the mixtures of the enzyme–inhibitor complex were dialyzed overnight at 4 °C using 25 mM KHPO4 (pH 7.4) buffer. The enzyme activities were examined before and after dialysis.

[8] = test system: MAO-A; parameters: method as in PMID 32869630; conditions: chemiluminescent assay, MAO-Glo kit; cited from earlier work
[9] = test system: MAO-B; parameters: method as in PMID 32869630; conditions: chemiluminescent assay, MAO-Glo kit; cited from earlier work
[10] = target: T3, Monoamine Oxidase A (Homo sapiens, UniProt P21397); experiment: MAO-A inhibition kinetics (Ki, type of inhibition); assay type: biochemical
T3 sequence (P21397 1-527): T1 sequence (P21397 1-527)
Description: as §2

[11] = test system: human recombinant MAO A; conditions: human recombinant; kynuramine; cited from earlier work
[12] = test system: human recombinant MAO B; conditions: cited from earlier work; for IC50: human recombinant, kynuramine
[13] = target: T2, human recombinant MAO-B; parameters: purchased BD Biosciences (Bedford, MA, USA); conditions: cited from earlier work

| IC50 [3] [nM] | selectivity towards MAO-B compared with MAO-A [5] [fold] | Selectivity Index MAO-A/B [5] | IC50 [5] [nM] | Monoamine Oxidase B Type of Inhibition [6] | Ki [6] [nM] | SMILES | reversibility of binding/inhibition of MAO-B [7] | IC50 [11] [nM] | IC50 [12] [nM] | other results |
| --- | --- | --- | --- | --- | --- | --- | --- | --- | --- | --- |
| – | – | – | – | – | – | O=C1C[C@@H](c2ccc(O)cc2)Oc2cc(O)cc(O)c21 [Naringenin] | – | – | – | IC50 [1]: 955000 ± 129000 nM; IC50 ([2]; chromogenic solution): 288000 ± 18000 nM; Selectivity Index MAO-A/B [2]: 3.32 |
| 48800 ± 2010 | 1478 | 1478.2 | 33 ± 4.2 | mixed/partially reversible | 43 ± 3.8 | CCCOc1ccc(-c2cc(=O)c3c(O)cc(OC)cc3o2)cc1 [Compound 1c, 5-Hydroxy-7-methoxy-2-(4-propoxyphenyl)-4H-chromen-4-one] | partially reversible; also recorded: reversible inhibition | – | – | inhibition at 0.1 µM [4]: 70 to 80%; MAO-B enzyme activity recovered after dialysis [7]: 30%; reversibility of binding/inhibition of MAO-B ([7]; listed as O-propyl): reversible MAO-B inhibitors |
| – | – | – | – | – | – | O=c1cc(-c2ccc(O)c(O)c2)oc2cc(O)cc(O)c12 [Luteolin] | – | – | – | IC50 [8]: 8570 ± 470 nM; IC50 [9]: > 100000 nM |
| 105 ± 1.4 | – | – | – | competitive/reversible | – | COc1ccc(-c2cc(=O)c3c(O)cc(O)cc3o2)cc1 [Acacetin] | – | 121 ± 1 | 49 ± 0.7 | Monoamine Oxidase A Type of Inhibition [10]: competitive/reversible; Ki ([10]; mean ± S.D. of triplicate experiments): 30 ± 1.8 nM |
| – | – | – | – | – | – | COc1ccc(-c2cc(=O)c3c(O)cc(OC)cc3o2)cc1 [Acacetin 7-O-methyl ether] | – | > 100000 | 198 ± 1 | Selectivity Index MAO-A/B [12]: >505.05; selectivity index (SI) for MAO A/B [12]: > 505 fold; Monoamine Oxidase B Type of Inhibition [13]: competitive/partially reversible |
| 62700 ± 5210 | 1279 | 1279.6 | 49 ± 1.4 | mixed/irreversible | 68 ± 7.1 | C#CCOc1ccc(-c2cc(=O)c3c(O)cc(OC)cc3o2)cc1 [Compound 4c, 5-Hydroxy-7-methoxy-2-(4-(prop-2-yn-1-yloxy)phenyl)-4H-chromen-4-one] | irreversible MAO-B inhibitors | – | – | inhibition at 0.4 µM [4]: 70 to 80% |
| 30740 ± 23 | 1921 | 1921.3 | 16 ± 7 | mixed/reversible | 52 ± 3.1 | COc1cc(O)c2c(=O)cc(-c3ccc(OC(C)C)cc3)oc2c1 [Compound 2c, 5-Hydroxy-2-(4-isopropoxyphenyl)-7-methoxy-4H-chromen-4-one] | reversible inhibition | – | – | inhibition at 0.3 µM [4]: 30 to 50%; MAO-B enzyme activity recovered after dialysis [7]: 66%; reversibility of binding/inhibition of MAO-B ([7]; listed as O-isopropyl): reversible MAO-B inhibitors |
| – | – | – | – | – | – | COc1ccc(-c2oc3cc(O)cc(O)c3c(=O)c2OC)cc1 [3,4′-Di-O-methyl kaempferol] | – | 33 ± 42 | 9670 ± 2390 | – |

| SMILES | IC50 [3] [nM] | selectivity towards MAO-B compared with MAO-A [5] [fold] | Selectivity Index MAO-A/B [5] | IC50 [5] [nM] | Monoamine Oxidase B Type of Inhibition [6] | Ki [6] [nM] | reversibility of binding/inhibition of MAO-B [7] | IC50 [11] [nM] | IC50 [12] [nM] | other results |
| --- | --- | --- | --- | --- | --- | --- | --- | --- | --- | --- |
| COc1cc(O)c2c(=O)cc(-c3ccc(OCC(C)C)cc3)oc2c1 [Compound 3c, 5-Hydroxy-2-(4-Isobutoxyphenyl)7-methoxy-4H-chromen-4-one] | > 100000 | > 3000 | >3225.8 | 31 ± 7 | mixed/irreversible | 37 ± 9.5 | irreversible MAO-B inhibitors | – | – | inhibition at 0.3 µM [4]: 70 to 80%; selectivity towards MAO-B compared with MAO-A ([5]; listed as O-isobutyl): > 3225 fold |
